According to patent publication US7230016B2, “Pioglitazone salts, such as pioglitazone sulfate, and pharmaceutical compositions and processes using the same” (priority 2003, dated 2007):
“Also recorded” adds a separate entry of the source. Where a name gives a salt, the structure may show the parent alone. Read-outs that look alike come from different tables or passages of the source. Blank lines part the entries; values can stand above or below the compound they belong to.

Experiments:
[1] = Aqueous solubility of pioglitazone salts derived from strong acids or bases; format: physicochemical; settings: for soluble in H2O: aqueous solubility of the salt, * = the salt is dissolved in water to form a blurred solution
Method: As used herein a pioglitazone salt is considered “water-soluble” if a salt concentration of at least 7 mg/ml can be achieved, even if only momentarily, in distilled water at 25° C. […] The base salts also dissolved in water but they typically formed an unclear solution. The water-soluble salts of pioglitazone are useful as active agents in forming a pioglitazone pharmaceutical composition, especially solid dosage forms, as is described herein after. […] Depending on the salt, the precipitation of a solid begins as quickly as within a few minutes or after several hours. The time of precipitation also depends on nucleation. In particular, once a solid forms, the solution quickly precipitates to form a complete suspension.

[2] = cited from earlier work
[3] = Dissolution experiment comparing pioglitazone salts (Example 2); format: physicochemical; settings: room temperature; for Dissolution (instant dissolution rate): 0.25 mmol salt added into 10 ml H2O with stirring, ** = salt dissolved partially to form an unclear solution; for later behaviour of the solution (turning into suspension / pioglitazone base) / kind of solution yielded on addition to water: 0.25 mmol salt in 10 ml H2O, stirring; for kind of solution yielded on addition to water: tosylate and 2-napsylate within 1 minute
Method: At room temperature, each pioglitazone salt (0.25 mmol) was added into 10 ml H2O with stirring.

[4] = Stability of pioglitazone sulfate aqueous solution with HPMC as solution stabilizer (Examples 3 and 4); format: physicochemical
Excerpt: Specifically, a solution stabilizer can be effectively added to a pioglitazone sulfate aqueous solution to enhance the stability. As used herein a “solution stabilizer” is an additive that when present in some amount in an aqueous pioglitazone sulfate solution, provides a statistically significant delay in the precipitation of pioglitazone base from the solution in comparison to the same solution held under the same conditions but without the solution stabilizer contained therein. […] Typically the solution stabilizer is a polymer, such as a water-soluble polymer, or a crown-ether. The solution stabilizer may be fully dissolved, partly dissolved and/or swelled, or not dissolved in the aqueous solution, but is preferably dissolved therein. Preferably the solution stabilizer is hydroxypropylmethylcellulose (HPMC), polyvinylpyrrolidone, or cyclodextrin, and most preferably HPMC. The amount of solution stabilizer is generally within the range of 1 to 500 mg/ml of the solution, typically 1 to 200 mg/ml, more typically 10 to 100 mg/ml. A stabilized pioglitazone sulfate solution is thus especially useful as a liquid pharmaceutical formulation and/or for making a liquid pharmaceutical formulation. The following system was tested using HPMC as an additive. […] To a clear solution containing 1.0 g of hydroxypropylmethylcellulose (HPMC) in 25 ml of H2O was added 125 mg of pioglitazone sulfate with stirring.

[5] = Properties of pioglitazone sulfate (solid state, methanol solubility, pH of aqueous solution); format: physicochemical
Method: Of the water-soluble salts, pioglitazone sulfate is the most preferred. As used herein “pioglitazone sulfate” means the salt formed from pioglitazone and sulfuric acid. The salt preferably has approximately a 1:1 molar ratio of pioglitazone moiety to sulfuric acid moiety, especially in solid form. […] Pioglitazone sulfate may be isolated in solid state as a white or almost white crystalline material. It melts at a temperature of about 105 to 115° C., without decomposition. […] Pioglitazone sulfate is thus an especially useful form of pioglitazone for making pharmaceutical formulations, e.g., as an active agent. The pioglitazone sulfate can precipitate from the solution spontaneously, but more likely some step such as cooling, concentrating, adding a seeding crystal, or adding a contrasolvent is advantageously and/or necessarily carried out. As pioglitazone sulfate is soluble in methanol, the addition of a contrasolvent is advantageous for precipitating the solid state salt. […] The size and shape of the formed crystals may be modified by known ways, for instance by precipitation regimen or by using crystallization modifiers. Solid state pioglitazone sulfate is a stable, easily handled solid material, and it may be used as an equivalent to pioglitazone hydrochloride in pharmaceutical compositions for treating pioglitazone-treatable diseases. […] Liquid compositions, particularly aqueous compositions, may include a solution stabilizer as indicated above. The stabilizer preferably comprises a water-soluble polymer, such as hydroxypropylmethylcellulose. The concentration of the polymer in the solution can be within any of the above-described ranges but most preferably is within the range from 0.1 to 10% (w/V) of the total volume. An aqueous solution of pioglitazone sulfate typically has a pH of about 4, which is well suited for both parenteral and peroral compositions.

Dissolution (instant dissolution rate) [3]: yes/no** | later behaviour of the solution (turning into suspension / pioglitazone base) [3]: quickly turned into a suspension | kind of solution yielded on addition to water [3]: unclear solutions
SMILES: CCc1ccc(CCOc2ccc(CC3SC(=O)NC3=O)cc2)nc1 (stereo not shown) [Tosylate]

soluble in H2O [1]: Yes | dissolution in water [1]: dissolved instantly in water | solubility in water [1]: superior aqueous solubility | dissolution in HPMC water solution ([4]; 100 mg in HPMC water solution (2%, 25 ml)): easily dissolved | dissolution in HPMC water solution ([4]; 125 mg added with stirring to 1.0 g HPMC in 25 ml H2O): A clear solution was formed | stability of the HPMC-stabilized solution ([4]; 125 mg in 1.0 g HPMC / 25 ml H2O, stirred at room temperature for more than one month): No obvious solid appeared | Dissolution (instant dissolution rate) [3]: Yes | later behaviour of the solution (turning into suspension / pioglitazone base) [3]: slowly turned into a suspension | kind of solution yielded on addition to water [3]: clear solutions | pH of aqueous solution ([5]; aqueous solution): about 4 | solubility in methanol ([5]; methanol): soluble | hygroscopicity of the solid compound ([5]; solid): not hygroscopic | stability of the solid state material ([5]; solid state): stable
SMILES: CCc1ccc(CCOc2ccc(CC3SC(=O)NC3=O)cc2)nc1 (stereo not shown) [Sulfate, pioglitazone sulfate]
stability of the water solution (precipitation of pioglitazone base) ([1]; aqueous solution without stabilizer): can stably remain in an aqueous solution for hours; also recorded: will eventually, after a trace of solid appears, turn into a suspension of pioglitazone base | stability of the HPMC-stabilized solution ([4]; 0.4% w/v pioglitazone sulfate in 2% HPMC water solution, room temperature, no obvious precipitation of a solid): stable at room temperature for at least four weeks

soluble in H2O [1]: Slight | Dissolution (instant dissolution rate) [3]: yes/no** | later behaviour of the solution (turning into suspension / pioglitazone base) [3]: quickly turned into a suspension | kind of solution yielded on addition to water [3]: unclear solutions
SMILES: CCc1ccc(CCOc2ccc(CC3SC(=O)NC3=O)cc2)nc1 (stereo not shown) [2-Napsylate]

soluble in H2O [1]: Yes | dissolution in water [1]: dissolved instantly in water
SMILES: CCc1ccc(CCOc2ccc(CC3SC(=O)NC3=O)cc2)nc1 (stereo not shown) [Mesylate]

The remaining lines, values behind:

SMILES: CCc1ccc(CCOc2ccc(CC3SC(=O)NC3=O)cc2)nc1 (stereo not shown) [pioglitazone base, 5-[[4-[2-(5-ethyl-2-pyridinyl)-ethoxy]phenyl]methyl]-2,4-thiazolidinedione, reference compound]
solubility in water [1]: so low

SMILES: CCc1ccc(CCOc2ccc(CC3SC(=O)NC3=O)cc2)nc1 (stereo not shown) [Hydrobromide]
soluble in H2O [1]: No

SMILES: CCc1ccc(CCOc2ccc(CC3SC(=O)NC3=O)cc2)nc1 (stereo not shown) [Ca salt]
soluble in H2O [1]: yes*

SMILES: CCc1ccc(CCOc2ccc(CC3SC(=O)NC3=O)cc2)nc1 (stereo not shown) [Na salt]
soluble in H2O [1]: yes*

SMILES: CCc1ccc(CCOc2ccc(CC3SC(=O)NC3=O)cc2)nc1 (stereo not shown) [K salt]
soluble in H2O [1]: yes*

SMILES: CCc1ccc(CCOc2ccc(CC3SC(=O)NC3=O)cc2)nc1 (stereo not shown) [Choline salt]
soluble in H2O [1]: yes*

SMILES: CCc1ccc(CCOc2ccc(CC3SC(=O)NC3=O)cc2)nc1 (stereo not shown) [Hydrochloride, Pioglitazone hydrochloride]
soluble in H2O ([1]; hydrochloride): No | behaviour of methanolic solution poured into water ([1]; no base (neutralizing agent) used): pioglitazone base quickly precipitates | dissolution in water ([1]; hydrochloride): did not dissolve in water | solubility in N,N-dimethylformamide ([2]; N,N-dimethylformamide): dissolves well | solubility in acetone ([2]; acetone): very slightly soluble | solubility in acetonitrile ([2]; acetonitrile): very slightly soluble | solubility in anhydrous ethanol ([2]; anhydrous ethanol): slightly soluble | solubility in dimethyl-sulfoxide ([2]; dimethyl-sulfoxide): dissolves well | solubility in ether ([2]; ether): insoluble | stability of the crystalline material ([2]; room temperature and under moisture): stable | solubility in water ([2]; water, hydrochloride): practically insoluble; also recorded: extremely insoluble

SMILES: CCc1ccc(CCOc2ccc(CC3SC(=O)NC3=O)cc2)nc1 (stereo not shown) [Edisylate]
soluble in H2O [1]: Yes | dissolution in water ([1]; listed as ethane-di-sulfonate): dissolved instantly in water | Dissolution (instant dissolution rate) ([3]; listed as ethane-disulfonate): Yes | later behaviour of the solution (turning into suspension / pioglitazone base) ([3]; listed as ethane disulfonate): slowly turned into a suspension | kind of solution yielded on addition to water ([3]; listed as ethane disulfonate): clear solutions
